The numbers were not newly measured in US11306114B2, “Process for separation, isolation and characterization of steviol glycosides” (Heartland Consumer Products, LLC, priority 2014, dated 2022), which cites them from elsewhere.

For data set [1] the following is noted: subjective relative ranking; data from Tanaka, Pure & Appl. Chem.
The conditions of data set [2]: for Sweetness Intensity: relative to an equal weight of sucrose, data from Tanaka, Pure & Appl. Chem.
For data set [3] the following is noted: carbonated beverages (Chang et al. 1983) / general statement.
The conditions of data set [4]: literature statements.

Like-named read-outs stand apart in the source and are kept apart here.

Turning to `C=C1C[C@@]23CC[C@H]4[C@@](C)(CCC[C@@]4(C)C(=O)O[C@@H]4O[C@H](CO)[C@@H](O)[C@H](O)[C@H]4O[C@@H]4O[C@H](CO)[C@@H](O)[C@H](O)[C@H]4O)[C@@H]2CC[C@]1(O[C@@H]1O[C@H](CO)[C@@H](O)[C@H](O[C@@H]2O[C@H](CO)[C@@H](O)[C@H](O)[C@H]2O)[C@H]1O[C@@H]1O[C@H](CO)[C@@H](O)[C@H](O)[C@H]1O)C3` [rebaudioside-D, rebaudioside D], the “Sweetness Quality” value in data set [1] is recorded as 3. For the same compound, the “Sweetness Intensity” value in data set [2] is 300.

On to `C=C1C[C@@]23CC[C@H]4[C@@](C)(CCC[C@@]4(C)C(=O)O[C@@H]4O[C@H](CO)[C@@H](O)[C@H](O)[C@H]4O)[C@@H]2CC[C@]1(O[C@@H]1O[C@H](CO)[C@@H](O)[C@H](O)[C@H]1O)C3` [rubusoside], for which the “Sweetness Quality” value in data set [1] is on record as −2. The “Sweetness Intensity” value in data set [2] is reported as 115.

With `C=C1C[C@@]23CC[C@H]4[C@@](C)(CCC[C@@]4(C)C(=O)O)[C@@H]2CC[C@]1(O[C@@H]1O[C@H](CO)[C@@H](O)[C@H](O)[C@H]1O)C3` [steviolmonoside], the “Sweetness Quality” value in data set [1] is −3. For the same compound, in data set [2], the “Sweetness Intensity” value is 40.

Regarding `C=C1C[C@@]23CC[C@H]4[C@@](C)(CCC[C@@]4(C)C(=O)O[C@@H]4O[C@H](CO)[C@@H](O)[C@H](O)[C@H]4O)[C@@H]2CC[C@]1(O[C@@H]1O[C@H](CO)[C@@H](O)[C@H](O)[C@H]1O[C@@H]1O[C@@H](C)[C@H](O)[C@@H](O)[C@H]1O)C3` [dulcoside-A, dulcoside A], the “Sweetness Quality” value in data set [1] is recorded as −2. Further, the “times sweeter than sucrose” value in data set [2] (general statements in text, varies with temperature and viscosity of the carrier medium) is listed as “about 30 times”. Besides, the “Sweetness Intensity” value in data set [2] was 70.

For the compound `C=C1C[C@@]23CC[C@H]4[C@@](C)(CCC[C@@]4(C)C(=O)O[C@@H]4O[C@H](CO)[C@@H](O)[C@H](O)[C@H]4O[C@@H]4O[C@H](CO)[C@@H](O)[C@H](O)[C@H]4O)[C@@H]2CC[C@]1(O[C@@H]1O[C@H](CO)[C@@H](O)[C@H](O)[C@H]1O[C@@H]1O[C@H](CO)[C@@H](O)[C@H](O)[C@H]1O)C3` [rebaudioside-E, rebaudioside E], the “Sweetness Quality” value in data set [1] is reported as 1. Further, the “Sweetness Intensity” value in data set [2] is recorded as 200.

On to `C=C1C[C@@]23CC[C@H]4[C@@](C)(CCC[C@@]4(C)C(=O)O[C@@H]4O[C@H](CO)[C@@H](O)[C@H](O)[C@H]4O)[C@@H]2CC[C@]1(O[C@@H]1O[C@H](CO)[C@@H](O)[C@H](O)[C@H]1O[C@@H]1O[C@H](CO)[C@@H](O)[C@H](O)[C@H]1O)C3` [stevioside, 13-[(2-O-β-D-glucopyranosyl-α-D-glucopyranosyl)oxy]-kaur-16-en-18-oic acid β-D-glucopyranosyl ester], for which, in data set [3], the “heat and pH stability” value is “heat and pH stability”. Further, the “Sweetness Quality” value in data set [1] is 0. Moreover, in data set [2], the “Sweetness Intensity” value is 145. Besides, the taste attributes entry in data set [4] is “metallic and bitter notes”.

As to rebaudioside B, in data set [1], the “Sweetness Quality” value was 3. Besides, the “Sweetness Intensity” value in data set [2] is reported as 300.

Regarding `C=C1C[C@@]23CC[C@H]4[C@@](C)(CCC[C@@]4(C)C(=O)O[C@@H]4O[C@H](CO)[C@@H](O)[C@H](O)[C@H]4O)[C@@H]2CC[C@]1(O[C@@H]1O[C@H](CO)[C@@H](O)[C@H](O[C@@H]2O[C@H](CO)[C@@H](O)[C@H](O)[C@H]2O)[C@H]1O[C@@H]1O[C@H](CO)[C@@H](O)[C@H](O)[C@H]1O)C3` [rebaudioside-A, rebaudioside A], in data set [3], the “heat and pH stability” value is “heat and pH stability”. Besides, the “Sweetness Quality” value in data set [1] is recorded as 2. In addition, the “Sweetness Intensity” value in data set [2] is listed as 250. Also, the taste attributes entry in data set [4] (listed as Rebaudioside A) was “the least astringent, the least bitter, and the least persistent aftertaste”; in data set [4] (listed as rebaudioside A), “metallic and bitter notes”.

In the case of rebaudioside C [rebaudioside-C], the “Sweetness Quality” value in data set [1] was −1. The “Sweetness Intensity” value in data set [2] was 200.

As for `C=C1C[C@@]23CC[C@H]4[C@@](C)(CCC[C@@]4(C)C(=O)O)[C@@H]2CC[C@]1(O[C@@H]1O[C@H](CO)[C@@H](O)[C@H](O)[C@H]1O[C@@H]1O[C@H](CO)[C@@H](O)[C@H](O)[C@H]1O)C3` [steviolbioside], the “Sweetness Quality” value in data set [1] was −3. In data set [2], the “Sweetness Intensity” value is 40.
